Measured values: ChEMBL document CHEMBL3991601, “The target landscape of clinical kinase drugs” (Science, 2017)
Activity calls are given as the source filed them.

Key:
[1] = molecular target: Casein kinase II subunit alpha' (Homo sapiens, UniProt P19784)
[2] = molecular target: T1, AarF domain-containing protein kinase 1 (Homo sapiens, UniProt Q86TW2)
T1 sequence (Q86TW2 whole entry): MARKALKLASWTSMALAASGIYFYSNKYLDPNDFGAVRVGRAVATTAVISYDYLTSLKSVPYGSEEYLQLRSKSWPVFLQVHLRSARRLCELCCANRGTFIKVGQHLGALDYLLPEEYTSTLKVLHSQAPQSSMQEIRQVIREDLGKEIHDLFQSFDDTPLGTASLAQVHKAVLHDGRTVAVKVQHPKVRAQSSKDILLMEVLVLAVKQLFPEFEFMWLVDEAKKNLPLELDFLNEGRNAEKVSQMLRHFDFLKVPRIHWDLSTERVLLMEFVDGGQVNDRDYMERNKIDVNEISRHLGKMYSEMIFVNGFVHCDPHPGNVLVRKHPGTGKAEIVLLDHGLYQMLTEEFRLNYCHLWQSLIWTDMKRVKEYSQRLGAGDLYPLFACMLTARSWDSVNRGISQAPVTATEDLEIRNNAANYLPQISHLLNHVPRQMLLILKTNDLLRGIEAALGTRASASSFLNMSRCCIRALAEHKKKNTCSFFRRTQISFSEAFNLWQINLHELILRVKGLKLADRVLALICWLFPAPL

[3] = molecular target: Protein kinase C beta type (Homo sapiens, UniProt P05771)
Sequence of Protein kinase C beta type (P05771 whole entry): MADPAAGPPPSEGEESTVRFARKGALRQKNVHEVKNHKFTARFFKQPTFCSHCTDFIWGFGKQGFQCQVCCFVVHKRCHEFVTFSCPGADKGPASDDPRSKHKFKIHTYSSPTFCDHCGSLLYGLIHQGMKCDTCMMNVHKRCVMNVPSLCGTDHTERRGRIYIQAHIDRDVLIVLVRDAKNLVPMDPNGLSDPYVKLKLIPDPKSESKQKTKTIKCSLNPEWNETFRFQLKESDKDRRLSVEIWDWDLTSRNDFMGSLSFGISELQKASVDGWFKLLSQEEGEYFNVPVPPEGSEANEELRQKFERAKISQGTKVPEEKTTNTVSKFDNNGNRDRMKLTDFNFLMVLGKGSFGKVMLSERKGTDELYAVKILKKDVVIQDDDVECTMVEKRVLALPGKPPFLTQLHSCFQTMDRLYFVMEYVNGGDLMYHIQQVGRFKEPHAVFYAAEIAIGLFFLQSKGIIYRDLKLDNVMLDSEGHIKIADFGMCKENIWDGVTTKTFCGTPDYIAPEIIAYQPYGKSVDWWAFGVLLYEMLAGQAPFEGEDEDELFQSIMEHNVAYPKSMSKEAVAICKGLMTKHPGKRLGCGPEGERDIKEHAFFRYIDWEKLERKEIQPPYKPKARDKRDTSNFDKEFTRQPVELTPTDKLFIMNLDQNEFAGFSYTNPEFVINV

[4] = molecular target: T2, Serine/threonine-protein kinase NLK (Homo sapiens, UniProt Q9UBE8)
T2 sequence (Q9UBE8 whole entry): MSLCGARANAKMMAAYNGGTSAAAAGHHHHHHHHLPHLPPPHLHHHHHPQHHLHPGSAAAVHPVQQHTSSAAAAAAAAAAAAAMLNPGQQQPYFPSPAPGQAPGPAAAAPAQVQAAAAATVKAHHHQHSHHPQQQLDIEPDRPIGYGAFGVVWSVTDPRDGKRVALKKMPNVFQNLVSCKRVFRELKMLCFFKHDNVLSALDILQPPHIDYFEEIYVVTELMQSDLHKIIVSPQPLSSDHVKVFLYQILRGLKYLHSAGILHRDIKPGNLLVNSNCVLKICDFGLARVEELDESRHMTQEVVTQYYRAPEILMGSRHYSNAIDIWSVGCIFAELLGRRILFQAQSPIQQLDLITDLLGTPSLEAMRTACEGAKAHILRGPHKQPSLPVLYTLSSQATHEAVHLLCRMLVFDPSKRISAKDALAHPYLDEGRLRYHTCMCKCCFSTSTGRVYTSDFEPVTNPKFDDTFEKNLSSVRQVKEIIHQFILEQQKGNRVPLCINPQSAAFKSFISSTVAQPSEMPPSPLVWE

Ephrin type-A receptor 5 = Ephrin type-A receptor 5 (Homo sapiens, UniProt P54756)
Sequence of Ephrin type-A receptor 5 (P54756 whole entry): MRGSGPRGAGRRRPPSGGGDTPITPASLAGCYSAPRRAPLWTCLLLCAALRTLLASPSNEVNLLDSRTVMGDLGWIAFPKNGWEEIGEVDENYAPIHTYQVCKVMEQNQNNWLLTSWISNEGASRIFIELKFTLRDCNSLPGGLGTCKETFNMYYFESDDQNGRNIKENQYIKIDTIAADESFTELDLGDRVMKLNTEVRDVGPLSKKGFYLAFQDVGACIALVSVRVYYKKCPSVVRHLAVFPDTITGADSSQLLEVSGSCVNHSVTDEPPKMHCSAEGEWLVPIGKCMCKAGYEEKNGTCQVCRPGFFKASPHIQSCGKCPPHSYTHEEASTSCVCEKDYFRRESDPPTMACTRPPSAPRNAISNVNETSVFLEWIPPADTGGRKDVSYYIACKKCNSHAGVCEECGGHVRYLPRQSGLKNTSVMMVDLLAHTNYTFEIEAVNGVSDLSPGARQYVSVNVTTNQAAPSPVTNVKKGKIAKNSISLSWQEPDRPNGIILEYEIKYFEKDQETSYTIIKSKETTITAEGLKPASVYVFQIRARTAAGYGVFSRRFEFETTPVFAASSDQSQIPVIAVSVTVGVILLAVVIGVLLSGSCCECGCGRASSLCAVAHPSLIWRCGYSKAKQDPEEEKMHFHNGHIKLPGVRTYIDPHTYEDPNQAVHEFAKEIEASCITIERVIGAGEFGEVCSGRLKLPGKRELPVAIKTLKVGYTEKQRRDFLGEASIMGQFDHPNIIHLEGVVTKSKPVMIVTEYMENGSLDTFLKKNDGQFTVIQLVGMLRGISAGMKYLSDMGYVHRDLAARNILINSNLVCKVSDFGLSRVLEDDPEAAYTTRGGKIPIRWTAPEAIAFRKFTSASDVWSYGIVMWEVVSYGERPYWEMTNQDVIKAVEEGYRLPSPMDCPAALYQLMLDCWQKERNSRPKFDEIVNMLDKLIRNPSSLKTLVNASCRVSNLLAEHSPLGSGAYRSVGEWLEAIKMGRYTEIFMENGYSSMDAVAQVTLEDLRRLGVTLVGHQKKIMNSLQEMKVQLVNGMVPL

[5] = molecular target: Receptor-interacting serine/threonine-protein kinase 3 (Homo sapiens, UniProt Q9Y572)
Sequence of Receptor-interacting serine/threonine-protein kinase 3 (Q9Y572 whole entry): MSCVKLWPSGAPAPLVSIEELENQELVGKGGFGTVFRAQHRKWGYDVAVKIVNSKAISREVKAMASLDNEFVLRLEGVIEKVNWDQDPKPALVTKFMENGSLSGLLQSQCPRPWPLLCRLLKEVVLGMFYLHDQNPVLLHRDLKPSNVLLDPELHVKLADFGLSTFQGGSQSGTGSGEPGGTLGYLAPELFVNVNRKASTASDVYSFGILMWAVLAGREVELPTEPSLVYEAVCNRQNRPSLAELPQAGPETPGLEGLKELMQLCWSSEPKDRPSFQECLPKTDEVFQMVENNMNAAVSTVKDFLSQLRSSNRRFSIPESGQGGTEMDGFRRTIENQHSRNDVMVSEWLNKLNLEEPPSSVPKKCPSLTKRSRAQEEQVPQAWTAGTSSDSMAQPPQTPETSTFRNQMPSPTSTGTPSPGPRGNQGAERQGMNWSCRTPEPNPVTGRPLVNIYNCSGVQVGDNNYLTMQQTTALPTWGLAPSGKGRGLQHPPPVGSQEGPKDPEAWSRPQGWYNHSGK

[6] = molecular target: T3, DNA replication licensing factor MCM4 (Homo sapiens, UniProt P33991)
T3 sequence (P33991 whole entry): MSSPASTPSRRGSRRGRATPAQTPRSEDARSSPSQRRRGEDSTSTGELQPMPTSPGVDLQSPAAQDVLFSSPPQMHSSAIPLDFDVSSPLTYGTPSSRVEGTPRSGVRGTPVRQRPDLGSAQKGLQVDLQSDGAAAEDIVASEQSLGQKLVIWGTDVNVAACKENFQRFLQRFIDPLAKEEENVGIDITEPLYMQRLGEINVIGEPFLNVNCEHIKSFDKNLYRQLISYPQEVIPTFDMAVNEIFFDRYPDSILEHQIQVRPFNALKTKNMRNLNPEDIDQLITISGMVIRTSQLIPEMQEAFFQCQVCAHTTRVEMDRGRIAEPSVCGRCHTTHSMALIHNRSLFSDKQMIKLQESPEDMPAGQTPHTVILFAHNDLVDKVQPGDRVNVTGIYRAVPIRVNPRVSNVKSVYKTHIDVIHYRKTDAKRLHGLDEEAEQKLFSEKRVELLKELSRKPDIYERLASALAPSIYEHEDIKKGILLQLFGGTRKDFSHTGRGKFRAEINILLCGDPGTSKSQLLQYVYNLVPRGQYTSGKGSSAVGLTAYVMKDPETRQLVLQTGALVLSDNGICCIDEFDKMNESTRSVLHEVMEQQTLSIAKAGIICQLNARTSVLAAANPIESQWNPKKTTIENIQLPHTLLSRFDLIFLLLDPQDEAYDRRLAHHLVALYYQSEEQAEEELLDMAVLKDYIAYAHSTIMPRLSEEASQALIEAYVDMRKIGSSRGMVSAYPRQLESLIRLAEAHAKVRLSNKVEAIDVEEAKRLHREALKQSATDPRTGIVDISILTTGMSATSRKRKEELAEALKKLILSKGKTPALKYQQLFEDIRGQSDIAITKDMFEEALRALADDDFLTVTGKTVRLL

[7] = molecular target: Guanine nucleotide-binding protein G(i) subunit alpha-2 (Homo sapiens, UniProt P04899)
Sequence of Guanine nucleotide-binding protein G(i) subunit alpha-2 (P04899 whole entry): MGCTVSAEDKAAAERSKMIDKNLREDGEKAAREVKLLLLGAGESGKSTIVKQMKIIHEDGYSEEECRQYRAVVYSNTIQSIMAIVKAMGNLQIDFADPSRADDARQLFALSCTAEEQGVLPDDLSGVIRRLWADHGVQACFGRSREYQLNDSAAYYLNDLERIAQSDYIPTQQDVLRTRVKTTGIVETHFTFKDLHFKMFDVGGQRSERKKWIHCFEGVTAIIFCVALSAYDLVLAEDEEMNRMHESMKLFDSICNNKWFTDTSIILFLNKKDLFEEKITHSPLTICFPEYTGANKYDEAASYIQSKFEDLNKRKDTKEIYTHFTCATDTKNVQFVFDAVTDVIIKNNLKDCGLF

Heme oxygenase 2 = molecular target: T4, Heme oxygenase 2 (Homo sapiens, UniProt P30519)
T4 sequence (P30519 whole entry): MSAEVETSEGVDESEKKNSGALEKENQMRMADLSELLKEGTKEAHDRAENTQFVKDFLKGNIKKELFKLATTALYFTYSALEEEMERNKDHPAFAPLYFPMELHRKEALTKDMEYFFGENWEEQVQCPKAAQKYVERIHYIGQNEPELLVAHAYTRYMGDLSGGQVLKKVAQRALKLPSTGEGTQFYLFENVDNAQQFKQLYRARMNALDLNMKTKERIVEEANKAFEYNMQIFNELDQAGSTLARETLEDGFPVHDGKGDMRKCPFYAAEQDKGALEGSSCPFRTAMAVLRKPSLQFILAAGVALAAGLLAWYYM

[8] = molecular target: Serine/threonine-protein kinase MRCK alpha (Homo sapiens, UniProt Q5VT25)
Sequence of Serine/threonine-protein kinase MRCK alpha (Q5VT25 whole entry): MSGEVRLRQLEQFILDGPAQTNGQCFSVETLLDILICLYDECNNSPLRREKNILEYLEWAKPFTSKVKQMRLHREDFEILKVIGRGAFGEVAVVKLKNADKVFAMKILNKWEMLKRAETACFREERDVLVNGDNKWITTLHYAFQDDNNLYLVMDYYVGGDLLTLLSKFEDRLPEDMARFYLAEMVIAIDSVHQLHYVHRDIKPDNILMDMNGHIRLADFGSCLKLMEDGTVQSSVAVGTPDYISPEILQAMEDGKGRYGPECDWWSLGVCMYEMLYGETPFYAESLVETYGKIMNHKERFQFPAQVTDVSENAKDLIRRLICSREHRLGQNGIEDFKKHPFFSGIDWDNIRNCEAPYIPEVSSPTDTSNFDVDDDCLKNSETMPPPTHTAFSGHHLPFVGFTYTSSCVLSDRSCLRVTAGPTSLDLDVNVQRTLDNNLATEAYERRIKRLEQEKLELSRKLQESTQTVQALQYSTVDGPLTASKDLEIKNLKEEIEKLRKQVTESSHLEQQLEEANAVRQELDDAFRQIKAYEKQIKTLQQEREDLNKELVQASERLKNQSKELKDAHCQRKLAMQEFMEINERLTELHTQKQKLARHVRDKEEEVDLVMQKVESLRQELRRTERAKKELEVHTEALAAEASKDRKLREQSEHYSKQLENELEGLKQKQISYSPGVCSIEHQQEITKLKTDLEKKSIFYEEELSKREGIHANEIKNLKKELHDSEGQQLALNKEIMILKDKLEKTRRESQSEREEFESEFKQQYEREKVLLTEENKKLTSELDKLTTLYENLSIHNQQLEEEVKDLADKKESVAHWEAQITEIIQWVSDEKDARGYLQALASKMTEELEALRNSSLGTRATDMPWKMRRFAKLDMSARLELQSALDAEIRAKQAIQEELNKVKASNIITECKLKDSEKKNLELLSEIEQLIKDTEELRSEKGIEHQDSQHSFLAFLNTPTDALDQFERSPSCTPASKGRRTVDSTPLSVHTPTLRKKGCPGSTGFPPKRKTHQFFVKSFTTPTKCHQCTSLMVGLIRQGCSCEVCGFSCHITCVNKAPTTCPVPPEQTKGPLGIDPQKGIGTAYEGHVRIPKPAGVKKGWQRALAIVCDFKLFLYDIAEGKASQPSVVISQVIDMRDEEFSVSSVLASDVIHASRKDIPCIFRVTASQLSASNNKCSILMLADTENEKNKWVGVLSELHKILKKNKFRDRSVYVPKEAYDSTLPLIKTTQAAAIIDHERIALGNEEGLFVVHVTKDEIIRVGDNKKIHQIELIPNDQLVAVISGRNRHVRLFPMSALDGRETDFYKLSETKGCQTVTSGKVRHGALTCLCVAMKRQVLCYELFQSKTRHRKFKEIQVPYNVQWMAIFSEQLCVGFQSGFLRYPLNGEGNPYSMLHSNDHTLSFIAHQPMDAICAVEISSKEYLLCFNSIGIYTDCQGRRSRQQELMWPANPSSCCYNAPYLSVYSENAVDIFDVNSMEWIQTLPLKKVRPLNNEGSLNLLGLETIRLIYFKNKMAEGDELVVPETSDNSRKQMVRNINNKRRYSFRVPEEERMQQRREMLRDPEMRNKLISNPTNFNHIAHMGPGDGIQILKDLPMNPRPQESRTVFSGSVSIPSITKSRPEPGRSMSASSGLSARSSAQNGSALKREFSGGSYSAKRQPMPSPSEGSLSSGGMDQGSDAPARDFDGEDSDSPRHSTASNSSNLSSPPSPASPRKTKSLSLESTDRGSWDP
Further: in the data inactive means no Kd found up to 30 µM.

Sequence of Casein kinase II subunit alpha' (P19784 whole entry, the tested form may be a part): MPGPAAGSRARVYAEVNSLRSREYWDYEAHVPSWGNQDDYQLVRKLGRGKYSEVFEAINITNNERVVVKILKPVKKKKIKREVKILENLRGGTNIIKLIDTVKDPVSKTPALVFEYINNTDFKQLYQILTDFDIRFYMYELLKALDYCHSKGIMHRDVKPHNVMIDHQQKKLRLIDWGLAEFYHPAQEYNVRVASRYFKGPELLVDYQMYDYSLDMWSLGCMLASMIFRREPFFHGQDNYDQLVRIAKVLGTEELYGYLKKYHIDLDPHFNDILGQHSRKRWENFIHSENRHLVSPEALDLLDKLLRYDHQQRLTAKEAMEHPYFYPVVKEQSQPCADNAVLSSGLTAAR

Kd [1]	Kd [2]	Kd [3]	Kd [4]	Kd (Ephrin type-A receptor 5)	Kd [5]	Kd [6]	Kd [7]	Kd (Heme oxygenase 2)	Kd [8]	SMILES
> 30 µM (inactive)	> 30 µM (inactive)	> 30 µM (inactive)	> 30 µM (inactive)	> 30 µM (inactive)	> 30 µM (inactive)	> 30 µM (inactive)		> 30 µM (inactive)	> 30 µM (inactive)	COc1cc2ncnc(Nc3ccc(O)cc3)c2cc1OC [WHI-P131]
> 30 µM (inactive)	> 30 µM (inactive)	> 30 µM (inactive)	> 30 µM (inactive)	> 30 µM (inactive)	> 30 µM (inactive)	> 30 µM (inactive)		> 30 µM (inactive)		CNC(=O)c1cc(COc2nnc(Nc3ccc(Cl)cc3)c3ccoc23)ccn1 [TELATINIB]
	> 30 µM (inactive)	> 30 µM (inactive)			> 30 µM (inactive)	> 30 µM (inactive)		> 30 µM (inactive)		COc1cc2c(Oc3ccc4[nH]c(C)cc4c3F)ncnc2cc1OCCCN1CCCC1 [CEDIRANIB]
	> 30 µM (inactive)	> 30 µM (inactive)			> 30 µM (inactive)	> 30 µM (inactive)				COc1cc2c(N3CCN(C(=O)Nc4ccc(OC(C)C)cc4)CC3)ncnc2cc1OCCCN1CCCCC1 [TANDUTINIB]
	> 30 µM (inactive)	> 30 µM (inactive)			> 30 µM (inactive)	> 30 µM (inactive)	> 30 µM (inactive)	> 30 µM (inactive)		CN(C)C/C=C/C(=O)Nc1cc2c(Nc3ccc(F)c(Cl)c3)ncnc2cc1O[C@H]1CCOC1 [AFATINIB]
> 30 µM (inactive)	> 30 µM (inactive)	> 30 µM (inactive)	> 30 µM (inactive)	> 30 µM (inactive)	> 30 µM (inactive)	> 30 µM (inactive)		> 30 µM (inactive)	> 30 µM (inactive)	Cn1c(=O)c(F)c(Nc2ccc(I)cc2F)c2c(=O)n(C[C@@H](O)CO)cnc21 [TAK-733]
	> 30 µM (inactive)	> 30 µM (inactive)			> 30 µM (inactive)	> 30 µM (inactive)	> 30 µM (inactive)	> 30 µM (inactive)		Cn1cnc2c(F)c(Nc3ccc(Br)cc3Cl)c(C(=O)NOCCO)cc21 [SELUMETINIB]
3.23 µM (active)	> 30 µM (inactive)	0.426 µM (active)	> 30 µM (inactive)	> 30 µM (inactive)	> 30 µM (inactive)	> 30 µM (inactive)		> 30 µM (inactive)	0.561 µM (active)	CC[C@@](C)(Nc1ccnc(-c2c[nH]c3ncccc23)n1)C(=O)NCC(F)(F)F [DECERNOTINIB]
> 30 µM (inactive)	> 30 µM (inactive)	> 30 µM (inactive)	> 30 µM (inactive)	> 30 µM (inactive)	> 30 µM (inactive)	> 30 µM (inactive)		> 30 µM (inactive)	> 30 µM (inactive)	Cc1ccc(C(=O)Nc2ccc(Oc3cc4cnn(C)c4cc3-c3cn[nH]c3)c(F)c2)c(=O)n1-c1ccc(F)cc1 [MERESTINIB]
> 30 µM (inactive)	> 30 µM (inactive)	> 30 µM (inactive)	> 30 µM (inactive)	> 30 µM (inactive)	> 30 µM (inactive)	> 30 µM (inactive)		> 30 µM (inactive)	> 30 µM (inactive)	O=C(NOC[C@H](O)CO)c1ccc(F)c(F)c1Nc1ccc(I)cc1F [MIRDAMETINIB]
	> 30 µM (inactive)	> 30 µM (inactive)			> 30 µM (inactive)	> 30 µM (inactive)	> 30 µM (inactive)	> 30 µM (inactive)		C[C@@]1(C(=O)Nc2ccc(F)nc2)CCCN1c1nc(Nc2cc(C3CC3)n[nH]2)c2cccn2n1 [BMS-754807]
	> 30 µM (inactive)	> 30 µM (inactive)			1.04 µM (active)	> 30 µM (inactive)	> 30 µM (inactive)	> 30 µM (inactive)		CC1(C)CNc2cc(NC(=O)c3cccnc3NCc3ccncc3)ccc21 [MOTESANIB]
> 30 µM (inactive)	> 30 µM (inactive)	> 30 µM (inactive)	> 30 µM (inactive)	> 30 µM (inactive)	0.088 µM (active)	> 30 µM (inactive)		> 30 µM (inactive)	> 30 µM (inactive)	C[C@@H]1COC(Nc2ccc3ncnc(Nc4ccc(OCc5nccs5)c(Cl)c4)c3c2)=N1 [VARLITINIB]
8.49 µM (active)	> 30 µM (inactive)	> 30 µM (inactive)	> 30 µM (inactive)	> 30 µM (inactive)	> 30 µM (inactive)	> 30 µM (inactive)		> 30 µM (inactive)	> 30 µM (inactive)	COc1ccc(-c2ccc3ncc4c(c3c2)n(-c2ccc(N3CCNCC3)c(C(F)(F)F)c2)c(=O)n4C)cn1 [BGT-226 FREE BASE]
	> 30 µM (inactive)	> 30 µM (inactive)	> 30 µM (inactive)	> 30 µM (inactive)	2.18 µM (active)	> 30 µM (inactive)		> 30 µM (inactive)	> 30 µM (inactive)	O=C(O)c1ccc2c(c1)nc(Nc1cccc(Cl)c1)c1ccncc12 [SILMITASERTIB]

SMILES	Kd [1]	Kd [2]	Kd [3]	Kd [4]	Kd (Ephrin type-A receptor 5)	Kd [5]	Kd [6]	Kd [7]	Kd (Heme oxygenase 2)	Kd [8]
CN(c1ncccc1CNc1nc(Nc2ccc3c(c2)CC(=O)N3)ncc1C(F)(F)F)S(C)(=O)=O [PF-00562271]	0.998 µM (active)	> 30 µM (inactive)	> 30 µM (inactive)	> 30 µM (inactive)	> 30 µM (inactive)	> 30 µM (inactive)	> 30 µM (inactive)	> 30 µM (inactive)	> 30 µM (inactive)	
CNC(=O)c1ccc(Nc2ncc(C(F)(F)F)c(NCc3nccnc3N(C)S(C)(=O)=O)n2)cc1 [DEFACTINIB]	1.2 µM (active)	> 30 µM (inactive)	> 30 µM (inactive)	> 30 µM (inactive)	> 30 µM (inactive)	> 30 µM (inactive)	> 30 µM (inactive)		> 30 µM (inactive)	> 30 µM (inactive)
Cc1c(Cn2c(C)nc3c(C(=O)O)cc(N4CCOCC4)cc32)cccc1C(F)(F)F [GSK-2636771]	> 30 µM (inactive)	> 30 µM (inactive)	> 30 µM (inactive)	> 30 µM (inactive)	> 30 µM (inactive)	> 30 µM (inactive)	> 30 µM (inactive)		> 30 µM (inactive)	> 30 µM (inactive)
